Tests used:
thrombin receptors = test: Peptide competition for [125I]-alpha-thrombin binding to ME cells; details: for Concentration Required for 30% Inhibition: [125I]-alpha-thrombin binding to ME cells; for fold higher concentration than p508-530 required for 30% inhibition of [125I]-alpha-thrombin binding: relative to p508-530
From the text: Thrombin peptide derivatives are believed to activate cells by binding to a high-affinity cell-surface thrombin receptor known as the non-proteolytically-activated thrombin receptor (hereinafter “NPAR”) (R. Horvat, et. al., J. Cell Sci. 108, 1155-1164 1995). Compounds which stimulate NPAR are said to be thrombin receptor agonists. NPAR activation can be assayed based on the ability of molecules to stimulate cell proliferation when added to fibroblasts in the presence of submitogenic concentrations of thrombin or molecules that activate protein kinase C or compete with ^125I-thrombin for high affinity binding17 to thrombin receptors, as disclosed in U.S. Pat. Nos. 5,352,664 and 5,500,412 and in Glenn et al., J. Peptide Research 1:65 (1988).
To further identify regions of thrombin involved in high-affinity binding and generation of mitogenic signals, two peptides representing specific domains within p508-530 were tested. The first peptide represented residues 519 to 530 of the B-chain region of human prothrombin, a region of thrombin that is highly conserved among serine proteases. The second peptide represented residues 517 to 520 of prothrombin, a region of thrombin homologous to the fibronectin cell binding domain.
Because p517-520 is homologous to the fibronectin cell binding domain, a peptide having the sequence Arg-Gly-[…]-Ser (SEQ ID NO:18; the sequence of the fibronectin specific peptide) was also tested for its ability to compete for [^125I]-alpha-thrombin binding.

NIL cells = details: increasing concentrations, quiescent NIL cells, 2 and 4 nM alpha-thrombin; FIG. 6 of U.S. Pat. No. 5,500,412; cited from earlier work
[1] = test system: full-thickness, 2 cm-diameter excisions on the dorsum; test: Wound closure, full-thickness excisions in rats (Example 2, TP508-Ser); type: in vivo, male Sprague-Dawley rats; details: for wound area reduced: 0.1 μg per wound, topical; for wound healing activity compared with TP508: Example 2, 0.1 μg per wound
Method: (§1) Two, full-thickness, 2 cm-diameter excisions were created on the dorsum of male Sprague-Dawley rats. […] Wound size was determined on post-wounding days 3, 7, and 10 by tracing the perimeter of the wound onto an acetate sheet and using digital analysis to compute the surface area of each wound.
Each group contained 8 rats.
(§2) Saline was used as the vehicle for the experiment. […] The working solution was maintained on ice throughout the experiment.
(§3) The working solution was maintained on ice throughout the experiment.
(§4) On post-wounding days 3, 7, and 10, the wounds were evaluated by tracing the wound perimeter onto a flexible acetate sheet, then determining wound area with digital analysis software.
Each data point represents the mean and standard error of the mean of 16 wounds from 8 rats. Statistical comparisons between groups were made using a repeated measures analysis of variance; Fisher's LSD was used for post hoc testing between groups.

[2] = test system: full-thickness, 2 cm-diameter excisions on the dorsum; test: Wound closure, full-thickness excisions in rats (Example 1, TP508-Ala); type: in vivo, male Sprague-Dawley rats; details: for wound area smaller than controls: 0.1 μg per wound, topical; for wound healing activity compared with TP508: Example 1, 0.1 μg per wound
Method: as §1
Each group contained 6 rats.
as §2, §3, §4
Each data point represents the mean and standard error of the mean of 12 wounds from 6 rats. Statistical comparisons between groups were made using a repeated measures analysis of variance; Fisher's LSD was used for post hoc testing between groups.

[3] = Dimer formation / stability in saline solution by HPLC; type: physicochemical; details: 5 mg/mL, 4° C.
From the text: Over a time period of 6 months, triplicate samples were taken at intervals from the solution.
The area percent of each HPLC peak was plotted in FIG. 3. The peak area percent corresponds directly to the percent of material in solution.
Over a time period of 1 month, triplicate samples were taken at intervals from the solution. […] The area percent of each HPLC peak was plotted in FIG. 4. The peak area percent corresponds directly to the percent of material in solution.
Over a time period of 1 month, triplicate samples were taken at intervals from the solution. […] The area percent of each HPLC peak was plotted in FIG. 5. The peak area percent corresponds directly to the percent of material in solution.

Arg-Gly-Ala-Ser (RGAS; Fibronectin Specific Peptide)
competition with [125I]-alpha-thrombin for binding (thrombin receptors; at a concentration of 1.3 μM): did not compete

DACEGDSGGPFV (Thrombin Peptide Derivative) [p519-530]
Concentration Required for 30% Inhibition (thrombin receptors): 200 nM | Maximal % Inhibition (thrombin receptors; at 800 nM, ME cells): 51% | fold higher concentration than p508-530 required for 30% inhibition of [125I]-alpha-thrombin binding (thrombin receptors): 33 fold | effect on DNA synthesis (NIL cells): enhanced DNA synthesis

H-Ala-Gly-Tyr-Lys-Pro-Asp-Glu-Gly -Lys-Arg-Gly-Asp-Ala-Ser-Glu-Gly-Asp-Ser-Gly-Gly-Pro-Phe-Val-NH2 (H-AGYKPDEGKRGDASEGDSGGPFV-NH2) [TP508-Ser]
wound area reduced ([1]; post-wounding Day 7): 18.2% | wound area reduced ([1]; post-wounding Day 10): 43.3% | wound healing activity compared with TP508 [1]: equivalent to TP508 in efficacy and potency | wound healing activity compared with TP508 ([1]; listed as TP508 Cys→Ser): about the same level of activity toward the thrombin receptor as TP508

H-Ala-Gly-Tyr-Lys-Pro-Asp-Glu-Gly-Lys-Arg -Gly-Asp-Ala-Ala-Glu-Gly-Asp-Ser-Gly-Gly-Pro-Phe-Val-NH2 (H-AGYKPDEGKRGDAAEGDSGGPFV-NH2) [TP508-Ala]
wound area smaller than controls ([2]; post-wounding Day 7): 18.7% | wound area smaller than controls ([2]; post-wounding Day 10): 25.1% | wound healing activity compared with TP508 [2]: equivalent to TP508 in efficacy and potency | wound healing activity compared with TP508 ([2]; listed as TP508 Cys→Ala): about the same level of activity toward the thrombin receptor as TP508 | HPLC peak area of monomer / peptide over time ([3]; 1 month): no decrease over time | conversion to dimer ([3]; 1 month): does not convert to dimer | conversion to dimer ([3]; 6 months): no dimerization

RGDA (Thrombin Peptide) [p517-520]
Concentration Required for 30% Inhibition (thrombin receptors): 300 nM | fold higher concentration than p508-530 required for 30% inhibition of [125I]-alpha-thrombin binding (thrombin receptors): 50 fold | effect on DNA synthesis (NIL cells): inhibited DNA synthesis

— patent US7713934B2, “Thrombin peptide derivatives” (The Board of Regents, The University of Texas System, priority 2002, dated 2010)
